Results on 31 compounds are retold here after US9776997B2, “3-aryl-substituted imidazo[1,2-A]pyridines and their use” (Bayer Pharma Aktiengesellschaft, priority 2013, dated 2017).

Several values for one entry are separate records, joined by “and”; a condition that tells them apart may be missing. Identical values can stand only once. Counter-ions that a name gives are not always drawn.

The target in the experiment is T1, recombinant guanylate cyclase reporter cell line (Rattus norvegicus, UniProt P19686+P20595).
T1 construct: expressed in transfected cells; host or cells: recombinant reporter cell line
T1 sequence (P19686 1-690): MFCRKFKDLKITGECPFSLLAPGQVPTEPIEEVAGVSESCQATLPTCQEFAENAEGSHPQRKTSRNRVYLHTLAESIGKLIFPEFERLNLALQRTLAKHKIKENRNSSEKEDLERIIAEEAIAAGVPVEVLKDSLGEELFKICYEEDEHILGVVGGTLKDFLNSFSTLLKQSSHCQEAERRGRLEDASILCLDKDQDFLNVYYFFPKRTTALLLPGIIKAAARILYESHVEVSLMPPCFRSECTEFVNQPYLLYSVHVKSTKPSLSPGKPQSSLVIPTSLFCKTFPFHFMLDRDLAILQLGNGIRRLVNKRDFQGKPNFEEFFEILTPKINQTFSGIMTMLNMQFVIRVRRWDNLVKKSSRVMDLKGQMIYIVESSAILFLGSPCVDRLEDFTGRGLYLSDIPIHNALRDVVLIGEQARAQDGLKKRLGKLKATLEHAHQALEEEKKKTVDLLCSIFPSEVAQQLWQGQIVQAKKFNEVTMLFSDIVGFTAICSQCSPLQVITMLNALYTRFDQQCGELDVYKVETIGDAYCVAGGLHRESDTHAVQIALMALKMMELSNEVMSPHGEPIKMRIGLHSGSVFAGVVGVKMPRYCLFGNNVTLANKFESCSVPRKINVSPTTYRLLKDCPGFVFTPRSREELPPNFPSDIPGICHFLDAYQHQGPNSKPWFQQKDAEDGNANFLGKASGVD
T1 sequence (P20595 1-619): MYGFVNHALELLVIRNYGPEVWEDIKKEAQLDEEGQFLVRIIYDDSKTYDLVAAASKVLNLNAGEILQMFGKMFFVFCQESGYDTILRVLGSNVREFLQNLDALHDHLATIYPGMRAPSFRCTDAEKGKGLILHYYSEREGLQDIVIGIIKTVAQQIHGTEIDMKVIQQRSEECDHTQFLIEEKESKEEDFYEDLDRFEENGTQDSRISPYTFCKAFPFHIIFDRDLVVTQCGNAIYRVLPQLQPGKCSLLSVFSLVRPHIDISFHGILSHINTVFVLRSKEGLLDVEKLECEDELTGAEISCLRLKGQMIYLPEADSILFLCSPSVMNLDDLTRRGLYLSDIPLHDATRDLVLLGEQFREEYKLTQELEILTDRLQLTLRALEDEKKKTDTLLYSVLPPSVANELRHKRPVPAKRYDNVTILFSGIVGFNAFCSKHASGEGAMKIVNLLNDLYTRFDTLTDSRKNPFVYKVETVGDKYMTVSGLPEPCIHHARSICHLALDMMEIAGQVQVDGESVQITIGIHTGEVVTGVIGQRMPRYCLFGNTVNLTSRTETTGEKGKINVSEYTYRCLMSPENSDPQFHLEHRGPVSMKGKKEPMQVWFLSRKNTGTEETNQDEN
In words: Effect on a recombinant guanylate cyclase reporter cell line. The following applies: MEC = minimum effective concentration; in some cases mean values for individual determinations. It is filed as cell-based. Here is the method:
B-2. Effect on a Recombinant Guanylate Cyclase Reporter Cell Line
The cellular effect of the inventive compounds is determined using a recombinant guanylate cyclase reporter cell line, as described in F. Wunder et al., Anal. Biochem. 339, 104-112 (2005).
Representative MEC values (MEC=minimum effective concentration) for the inventive compounds are shown in the table below (in some cases as mean values for individual determinations): […]
In the case of `Cc1nc2c(OCc3c(F)cccc3F)cccn2c1-c1cccc(OC(F)(F)F)c1` [Example 24, 8-[(2,6-difluorobenzyl)oxy]-2-methyl-3-[3-(trifluormethoxy)phenyl]imidazo[1,2-a]pyridine], the MEC worked out at 1.0 µM.
Turning to `Cc1nc2c(OCc3c(F)cccc3F)cccn2c1-c1cn[nH]n1` [Example 134, 8-[(2,6-Difluorobenzyl)oxy]-2-methyl-3-(2H-1,2,3-triazol-4-yl)imidazo[1,2-a]pyridine], the MEC was 1.0 µM.
`CCCOc1ccc(-c2c(C)nc3c(OCc4c(F)cccc4F)cccn23)cn1` [Example 22, 8-[(2,6-difluorobenzyl)oxy]-2-methyl-3-(6-propoxypyridin-3-yl)imidazo[1,2-a]pyridine]: the MEC stood at 1.0 µM.
`Cc1nc2c(OCC3CCCCC3)cccn2c1-c1nnc(C(C)O)o1` (stereo not shown) [Example 65]: the MEC is 3.0 µM.
For the compound `Cc1cc(OCc2c(F)cccc2F)c2nc(C)c(-c3cccc(CN4CCN(C)CC4)c3)n2c1` [Example 120], the MEC came to 0.3 µM.
As for `Cc1cc(OCc2c(F)cccc2F)c2nc(C)c(-c3nc[nH]n3)n2c1` [Example 128, 8-[(2,6-Difluorobenzyl)oxy]-2,6-dimethyl-3-(1H-1,2,4-triazol-3-yl)imidazo[1,2-a]pyridine], the MEC is 1.0 µM.
Turning to `Cc1cc(OCc2c(F)ccc(F)c2F)c2nc(C)c(-c3cn[nH]c3)n2c1` [Example 86, 2,6-dimethyl-3-(1H-pyrazol-4-yl)-8-[(2,3,6-trifluorobenzyl)oxy]imidazo[1,2-a]pyridine], the MEC amounted to 0.03 µM.
For `Cc1cc(OCc2c(F)cccc2F)c2nc(C)c(-c3nccc(C(N)=O)n3)n2c1` [Example 80, 2-{8-[(2,6-Difluorobenzyl)oxy]-2,6-dimethylimidazo[1,2-a]pyridin-3-yl}pyrimidine-4-carboxamide trifluoroacetate], the MEC amounted to 0.3 µM.
With `Cc1nc2c(OCc3c(F)cccc3F)cccn2c1-c1cnn(CC(C)(C)N)c1` [Example 90, 1-(4-{8-[(2,6-Difluorobenzyl)oxy]-2-methylimidazo[1,2-a]pyridin-3-yl}-1H-pyrazol-1-yl)-2-methylpropan-2-amine], the MEC turned out to be 0.3 µM.
As to `Cc1nc2c(OCc3c(F)cccc3F)cccn2c1-c1cccc(CN2CCCCC2)c1` [Example 42, 8-[(2,6-difluorobenzyl)oxy]-2-methyl-3-[3-(piperidin-1-ylmethyl)phenyl]imidazo[1,2-a]pyridine], the MEC amounted to 3.0 µM.
With `Cc1nc2c(OCc3c(F)cccc3F)cccn2c1-c1ccc2c(c1)OCCO2` [Example 37, 8-[(2,6-difluorobenzyl)oxy]-3-(2,3-dihydro-1,4-benzodioxin-6-yl)-2-methylimidazo[1,2-a]pyridine], the MEC came to 3.0 µM.
As for `Cc1cc(OCc2c(F)cccc2F)c2nc(C)c(-c3cncc(C(=O)O)c3)n2c1` [Example 76, 5-{8-[(2,6-Difluorobenzyl)oxy]-2,6-dimethylimidazo[1,2-a]pyridin-3-yl}nicotinic acid trifluoroacetate], the figure is 3.0 µM; as for `Cc1cc(OCc2c(F)cccc2F)c2nc(C)c(-c3cnn(CCN4CC(O)C4)c3)n2c1` [Example 95, 1-[2-(4-{8-[(2,6-Difluorobenzyl)oxy]-2,6-dimethylimidazo[1,2-a]pyridin-3-yl}-1H-pyrazol-1-yl)ethyl]azetidin-3-ol trifluoroacetate], 0.3 µM.
On to `Cc1cc(OCc2c(F)cccc2F)c2nc(C)c(-c3cnn(CCN4CCS(=O)(=O)CC4)c3)n2c1` [Example 93, 8-[(2,6-Difluorobenzyl)oxy]-3-{1-[2-(1,1-dioxidothiomorpholin-4-yl)ethyl]-1H-pyrazol-4-yl}-2,6-dimethylimidazo[1,2-a]pyridine], for which the MEC was 0.1 µM.
With `Cc1nc2c(OCc3c(F)cccc3F)cccn2c1-c1ccc(C#N)cc1` [Example 17, 4-{8-[(2,6-difluorobenzyl)oxy]-2-methylimidazo[1,2-a]pyridin-3-yl}benzonitrile], the MEC is 1.0 µM.
As to `Cc1nc2c(OCc3c(F)cccc3F)cccn2c1-c1ccncc1` [Example 29, 8-[(2,6-difluorobenzyl)oxy]-2-methyl-3-(pyridin-4-yl)imidazo[1,2-a]pyridine], the MEC came out at 1.0 µM.
As to `CCNc1nnc(-c2c(C)nc3c(OCc4c(F)cccc4F)cccn23)o1` [Example 57, 5-{8-[(2,6-Difluorobenzyl)oxy]-2-methylimidazo[1,2-a]pyridin-3-yl}-N-ethyl-1,3,4-oxadiazole-2-amine], the MEC came out at 1.0 µM.
As to `Cc1nc2c(OCc3c(F)cccc3F)cccn2c1-c1ccsc1` [Example 14, 8-[(2,6-difluorobenzyl)oxy]-2-methyl-3-(3-thienyl)imidazo[1,2-a]pyridine], the MEC stood at 0.3 µM.
On to `Cc1nc2c(OCc3c(F)cccc3F)cccn2c1-c1cnccn1` [Example 60, 8-[(2,6-Difluorobenzyl)oxy]-2-methyl-3-(pyrazin-2-yl)imidazo[1,2-a]pyridine], for which the MEC was 3.0 µM.
Regarding `Cc1nc2c(OCc3c(F)cccc3F)cccn2c1-c1ccc(C(N)=O)cc1` [Example 40, 4-{8-[(2,6-difluorobenzyl)oxy]-2-methylimidazo[1,2-a]pyridin-3-yl}benzamide], the MEC turned out to be 3.0 µM.
On to `Cc1nc2c(OCc3c(F)cccc3F)cccn2c1-c1cnn(-c2ccc(F)cc2)c1` [Example 123, 8-[(2,6-Difluorobenzyl)oxy]-3-[1-(4-fluorophenyl)-1H-pyrazol-4-yl]-2-methylimidazo[1,2-a]pyridine], for which the MEC came out at 0.3 µM.
For `Cc1nc2c(OCc3c(F)cccc3F)cccn2c1-c1cccc2[nH]ncc12` [Example 53], the MEC worked out at 1.0 µM.
On to `Cc1nc2c(OCc3c(F)cccc3F)cccn2c1-c1cnn(C(C)C)c1` [Example 52], for which the MEC came to 0.3 µM.
The figure for `Cc1cc(OCc2c(F)cccc2F)c2nc(C)c(-c3nnc(CC(C)(C)N)o3)n2c1` [Example 130, 1-(5-{8-[(2,6-Difluorobenzyl)oxy]-2,6-dimethylimidazo[1,2-a]pyridin-3-yl}-1,3,4-oxadiazol-2-yl)-2-methylpropan-2-amine] is 3.0 µM; for `Cc1cc(OCc2c(F)cccc2F)c2nc(C)c(-c3cnn(Cc4cc(C)on4)c3)n2c1` [Example 98, 8-[(2,6-Difluorobenzyl)oxy]-2,6-dimethyl-3-{1-[(5-methyl-1,2-oxazol-3-yl)methyl]-1H-pyrazol-4-yl}imidazo[1,2-a]pyridine] it is 0.03 µM and 3.0 µM; for `Cc1cc(OCc2c(F)cccc2F)c2nc(C)c(-c3cnn(C(C)C(=O)O)c3)n2c1` (stereo not shown) [Example 109] it is 0.3 µM.
For the compound `Cc1cc(OCc2c(F)cccc2F)c2nc(C)c(-c3cn[nH]c3)n2c1` [Example 88, 8-[(2,6-difluorobenzyl)oxy]-2,6-dimethyl-3-(1H-pyrazol-4-yl)imidazo[1,2-a]pyridine], the MEC came out at 0.01 µM.
Take `COC(=O)CCn1cc(-c2c(C)nc3c(OCc4c(F)cccc4F)cc(C)cn23)cn1` [Example 102, Methyl 3-(4-{8-[(2,6-difluorobenzyl)oxy]-2,6-dimethylimidazo[1,2-a]pyridin-3-yl}-1H-pyrazol-1-yl)propanoate]: the MEC was found to be 0.1 µM.
On to `Cc1cc(-c2c(C)nc3c(OCc4c(F)cccc4F)cccn23)ccn1` [Example 3, 8-[(2,6-difluorobenzyl)oxy]-2-methyl-3-(2-methylpyridin-4-yl)imidazo[1,2-a]pyridine], for which the MEC stood at 0.1 µM.
Consider `Cc1nc2c(OCC3CCCCC3)cccn2c1-c1nnc(CN2CCCC2=O)o1` [Example 71], for which the MEC worked out at 3.0 µM.
Turning to `CCN(C)Cc1ccc(OC)c(-c2c(C)nc3c(OCc4c(F)cccc4F)cccn23)c1` [Example 28, N-(3-{8-[(2,6-difluorobenzyl)oxy]-2-methylimidazo[1,2-a]pyridin-3-yl}-4-methoxybenzyl)-N-methylethanamine], the MEC amounted to 1.0 µM.
